Source: patent publication US10821065B2, “Peptide for inhibiting biofilms” (SEOUL NATIONAL UNIVERSITY R&DB FOUNDATION, priority 2017, dated 2020)

How the values were obtained:
[1] = test system: Streptococcus mutans biofilm; assay: Streptococcus mutans biofilm formation, 0.1% crystal violet staining; assay type: cell-based; settings: 37° C., 24 hours; for S. mutans biofilm formation (crystal violet), single or co-treatment: 10 μg/ml HBD3-C15, 25 μg/ml CH, 0.02% CHX, or combination, FIG. 2A
Experimental: To confirm the effect of HBD3-C15 on a Streptococcus mutans biofilm, Streptococcus mutans was cultured in a Brain Heart Infusion (BHI) medium. The cultured Streptococcus mutans was prepared at 1×10^7 CFU/ml, and then 1% NaCl or 0.05% sucrose was added thereto to promote biofilm formation, followed by treatment with 50 μg/ml of HBD3-C15. After incubation at 37° C. for 24 hours, 0.1% crystal violet staining was performed for comparison of the degree of biofilm formation.
In addition, 0.05% sucrose was added to Streptococcus mutans, followed with treatment with HBD3-C15 at a concentration of 10 μg/ml, 30 μg/ml, or 50 μg/ml. After incubation at 37° C. for 24 hours, 0.1% crystal violet staining was performed for comparison of the degree of biofilm formation.
To determine whether HBD3-C15 is capable of inhibiting a biofilm by synergistic effects with calcium hydroxide (CH) or chlorohexidine (CHX), which is an existing dental therapeutic agent, Streptococcus mutans was cultured in a BHI medium and then prepared at 1×10^7 CFU/ml, and treated with 10 μg/ml of HBD3-C15, 25 μg/ml of CH, 0.02% CHX, or a combination thereof in the presence of 0.05% sucrose. After incubation at 37° C. for 24 hours, 0.1% crystal violet staining was performed for comparison of the degree of biofilm formation.

[2] = test system: Streptococcus mutans biofilm; assay: Streptococcus mutans biofilm formation on human teeth dentin sections, scanning electron microscope; assay type: cell-based; settings: 10 μg/ml HBD3-C15, 25 μg/ml CH, 0.02% CHX, or combination; 0.05% sucrose; 37° C., 24 hours; FIG. 2B
Experimental: In addition, human teeth dentin sections were prepared to represent an actual oral infection situation, 1×10^7 CFU/ml of Streptococcus mutans was treated, on the dentin sections, with 10 μg/ml of HBD3-C15, 25 μg/ml of CH, 0.02% CHX, or a combination thereof in the presence of 0.05% sucrose. After incubation at 37° C. for 24 hours, comparison of the degree of biofilm formation was conducted using a scanning electron microscope.

[3] = test system: Enterococcus faecalis biofilm; assay: Enterococcus faecalis biofilm formation on dentin sections, scanning electron microscope; assay type: cell-based; settings: 5×10^6 CFU/ml; 10 μg/ml HBD3-C15, 25 μg/ml CH, 0.02% CHX, or combination; 37° C., 24 hours; FIG. 3
Experimental: (§1) To confirm whether the Streptococcus mutans biofilm inhibition through synergistic effects of HBD3-C15 and an existing dental therapeutic agent is reproduced in the formation of biofilms formed by other dental infectious bacteria, Enterococcus faecalis and Streptococcus gordonii were cultured in a BHI medium and a Todd Hewitt yeast (THY) medium, respectively, and then E. faecalis and S. gordonii were prepared at 5×10^6 CFU/ml and 1×10^8 CFU/ml, respectively, and treated, on the dentin sections, with 10 μg/ml of HBD3-C15, 25 μg/ml of CH, 0.02% CHX, or a combination thereof. After incubation at 37° C. for 24 hours, comparison of the degree of biofilm formation was conducted using a scanning electron microscope.

[4] = test system: Streptococcus gordonii biofilm; assay: Streptococcus gordonii biofilm formation on dentin sections, scanning electron microscope; assay type: cell-based; settings: 1×10^8 CFU/ml; 10 μg/ml HBD3-C15, 25 μg/ml CH, 0.02% CHX, or combination; 37° C., 24 hours; FIG. 3
Experimental: as §1

[5] = Tooth discoloration of treated dentin sections, photographed; parameters: species or system human; settings: 30 μg/ml HBD3-C15, 0.002% CHX, 0.02% CHX, or combination (2% CHX positive control), 37° C., 7 days, FIG. 5
Experimental: According to previous papers, it has been reported that CHX, which is a typical dental therapeutic agent, causes side effects such as tooth discoloration. Thus, to confirm the effect of treatment with HBD3-C15 alone or a combination of HBD3-C15 and CHX on tooth discoloration, dentin sections were treated with 30 μg/ml of HBD3-C15, 0.002% CHX, 0.02% CHX, or a combination thereof, and 2% CHX was used as a positive control. Subsequently, the dentin sections were cultured at 37° C. for 7 days and photographed to observe the degree of tooth discoloration.

[6] = test system: Streptococcus mutans biofilm; assay: Streptococcus mutans biofilm formation, confocal microscope; assay type: cell-based; settings: HBD3-C15 at 10, 30 or 50 μg/ml; 0.05% sucrose; FIG. 1C

| Molecule | S. mutans biofilm formation (crystal violet), single or co-treatment ([1]; 0.05% sucrose) | S. mutans biofilm formation on dentin sections (SEM), single or co-treatment [2] | E. faecalis biofilm formation on dentin sections (SEM), single or co-treatment [3] | S. gordonii biofilm formation on dentin sections (SEM), single or co-treatment [4] | tooth discoloration [5] | formation of Streptococcus mutans biofilm (crystal violet) ([1]; 50 μg/ml HBD3-C15, biofilm promoted by 0.05% sucrose, FIG. 1A) | formation of Streptococcus mutans biofilm (crystal violet) ([1]; 50 μg/ml HBD3-C15, biofilm promoted by 1% NaCl, FIG. 1A) | formation of Streptococcus mutans biofilm (crystal violet) ([1]; HBD3-C15 at 10, 30 or 50 μg/ml, 0.05% sucrose, FIG. 1B) | formation of Streptococcus mutans biofilm (confocal microscope) [6] |
| --- | --- | --- | --- | --- | --- | --- | --- | --- | --- |
| [Ca+2].[OH-].[OH-] [CH, calcium hydroxide] | inhibited | inhibited | inhibited | inhibited | – | – | – | – | – |
| N=C(NCCCCCCNC(=N)NC(=N)Nc1ccc(Cl)cc1)NC(=N)Nc1ccc(Cl)cc1 [CHX, chlorohexidine] | inhibited | inhibited | inhibited | inhibited | induced by treatment with CHX alone in a concentration-dependent manner | – | – | – | – |
| G-K-C-S-T-R-G-R-K-C-C-R-R-K-K [HBD3-C15] | inhibited | inhibited | inhibited | inhibited | – | inhibited | inhibited | inhibited in a concentration-dependent manner | inhibit formation of a biofilm in a concentration-dependent manner |
